According to paper PMC8398766, “Do Small Molecules Activate the TrkB Receptor in the Same Manner as BDNF? Limitations of Published TrkB Low Molecular Agonists and Screening for Novel TrkB Orthosteric Agonists” (Pharmaceuticals, 2021):

What was measured:
Experiment in all cases: BioPrint Profile Panel
Assay type in all cases: binding
5-HT2B = target: T1, 5-HT2B (Homo sapiens, UniProt P41595); details: Agonist, Receptor
T1 construct: purchased Eurofins Discovery (Cerep) BioPrint Profile Panel
From the text: (§1) The BioPrint® Profile Panel service offered by Eurofins Discovery (Poitiers, France) was chosen to perform selectivity analysis.

µ (MOP) = target: T2, µ (MOP) (Homo sapiens, UniProt P35372); details: Agonist, Receptor, read-out: % of specific inhibition
T2 construct: purchased Eurofins Discovery (Cerep) BioPrint Profile Panel
From the text: as §1

EP2 = target: T3, EP2 (Homo sapiens, UniProt P43116); details: Agonist, Receptor, read-out: % of specific inhibition
T3 construct: purchased Eurofins Discovery (Cerep) BioPrint Profile Panel
From the text: as §1

5-HT transporter = target: T4, 5-HT transporter (Homo sapiens, UniProt P31645); details: Antagonist, read-out: % of specific inhibition
T4 construct: purchased Eurofins Discovery (Cerep) BioPrint Profile Panel
From the text: as §1

motilin = target: T5, motilin (Homo sapiens, UniProt O43193); details: Agonist, Receptor, read-out: % of specific inhibition
T5 construct: purchased Eurofins Discovery (Cerep) BioPrint Profile Panel
From the text: as §1

D3 = target: T6, D3 (Homo sapiens, UniProt P35462); details: Antagonist, Receptor, read-out: % of specific inhibition
T6 construct: purchased Eurofins Discovery (Cerep) BioPrint Profile Panel
From the text: as §1

NOP (ORL1) = target: T7, NOP (ORL1) (Homo sapiens, UniProt P41146); details: Agonist, Receptor, read-out: % of specific inhibition
T7 construct: purchased Eurofins Discovery (Cerep) BioPrint Profile Panel
From the text: as §1

α1A = target: T8, α1A (Homo sapiens, UniProt P35348); details: Antagonist, Receptor, read-out: % of specific inhibition
T8 construct: purchased Eurofins Discovery (Cerep) BioPrint Profile Panel
From the text: as §1

CB2 = target: T9, CB2 (Homo sapiens, UniProt P34972); details: Agonist, Receptor, read-out: % of specific inhibition
T9 construct: purchased Eurofins Discovery (Cerep) BioPrint Profile Panel
From the text: as §1

IP (PGI2) = target: T10, IP (PGI2) (Homo sapiens, UniProt P43119); details: Agonist, Receptor, read-out: % of specific inhibition
T10 construct: purchased Eurofins Discovery (Cerep) BioPrint Profile Panel
From the text: as §1

D1 = target: T11, D1 (Homo sapiens, UniProt P21728); details: Antagonist, Receptor, read-out: % of specific inhibition
T11 construct: purchased Eurofins Discovery (Cerep) BioPrint Profile Panel
From the text: as §1

NK1 = target: T12, NK1 (Homo sapiens, UniProt P25103); details: Agonist, Receptor, read-out: % of specific inhibition
T12 construct: purchased Eurofins Discovery (Cerep) BioPrint Profile Panel
From the text: as §1

M1 = target: T13, M1 (Homo sapiens, UniProt P11229); details: Antagonist, Receptor, read-out: % of specific inhibition
T13 construct: purchased Eurofins Discovery (Cerep) BioPrint Profile Panel
From the text: as §1

AT1 = target: T14, AT1 (Homo sapiens, UniProt P30556); details: Antagonist, Receptor, read-out: % of specific inhibition
T14 construct: purchased Eurofins Discovery (Cerep) BioPrint Profile Panel
From the text: as §1

UT = target: T15, UT (Homo sapiens, UniProt Q9UKP6); details: Agonist, Receptor, read-out: % of specific inhibition
T15 construct: purchased Eurofins Discovery (Cerep) BioPrint Profile Panel
From the text: as §1

M2 = target: T16, M2 (Homo sapiens, UniProt P08172); details: Antagonist, Receptor, read-out: % of specific inhibition
T16 construct: purchased Eurofins Discovery (Cerep) BioPrint Profile Panel
From the text: as §1

sst4 = target: T17, sst4 (Homo sapiens, UniProt P31391); details: Agonist, Receptor, read-out: % of specific inhibition
T17 construct: purchased Eurofins Discovery (Cerep) BioPrint Profile Panel
From the text: as §1

PAF = target: T18, PAF (Homo sapiens, UniProt P25105); details: Agonist, Receptor, read-out: % of specific inhibition
T18 construct: purchased Eurofins Discovery (Cerep) BioPrint Profile Panel
From the text: as §1

D2S = target: T19, D2S (Homo sapiens, UniProt P14416); details: Agonist, Receptor, read-out: % of specific inhibition
T19 construct: purchased Eurofins Discovery (Cerep) BioPrint Profile Panel
From the text: as §1

CysLT1 (LTD4) = target: T20, CysLT1 (LTD4) (Homo sapiens, UniProt Q9Y271); details: Agonist, Receptor, read-out: % of specific inhibition
T20 construct: purchased Eurofins Discovery (Cerep) BioPrint Profile Panel
From the text: as §1

5-HT7 = target: T21, 5-HT7 (Homo sapiens, UniProt P34969); details: Agonist, Receptor, read-out: % of specific inhibition
T21 construct: purchased Eurofins Discovery (Cerep) BioPrint Profile Panel
From the text: as §1

Cl- channel = details: 10 μM; Antagonist; Ion Channel
From the text: as §1

[1] = system: Ca2+ channel (diltiazem site); details: 10 μM; Antagonist (diltiazem site); Ion Channel
From the text: as §1

A3 = target: T22, A3 (Homo sapiens, UniProt P0DMS8); details: Agonist, Receptor
T22 construct: purchased Eurofins Discovery (Cerep) BioPrint Profile Panel
From the text: as §1

glucagon = target: T23, glucagon (Homo sapiens, UniProt P47871); details: Agonist, Receptor, read-out: % of specific inhibition
T23 construct: purchased Eurofins Discovery (Cerep) BioPrint Profile Panel
From the text: as §1

H1 = target: T24, H1 (Homo sapiens, UniProt P35367); details: Antagonist, Receptor, read-out: % of specific inhibition
T24 construct: purchased Eurofins Discovery (Cerep) BioPrint Profile Panel
From the text: as §1

V2 = target: T25, V2 (Homo sapiens, UniProt P30518); details: Agonist, Receptor, read-out: % of specific inhibition
T25 construct: purchased Eurofins Discovery (Cerep) BioPrint Profile Panel
From the text: as §1

glycine = details: 10 μM; Antagonist; Ion Channel
From the text: as §1

N muscle-type = details: 10 μM; Antagonist; Receptor
From the text: as §1

ẟ(DOP) = target: T26, ẟ(DOP) (Homo sapiens, UniProt P41143); details: Agonist, Receptor, read-out: % of specific inhibition
T26 construct: purchased Eurofins Discovery (Cerep) BioPrint Profile Panel
From the text: as §1

GABAA1 (h) (α1, β2, γ2) = target: T27, GABAA1 (h) (α1, β2, γ2) (Homo sapiens, UniProt P14867+P47870); details: Agonist, Receptor, read-out: % of specific inhibition
T27 construct: purchased Eurofins Discovery (Cerep) BioPrint Profile Panel
From the text: as §1

MT3 (ML2) = details: 10 μM; Agonist; Receptor
From the text: as §1

Ca2+ channel = details: 10 μM, Antagonist, Ion Channel
From the text: as §1

A2A = target: T28, A2A (Homo sapiens, UniProt P29274); details: Agonist, Receptor
T28 construct: purchased Eurofins Discovery (Cerep) BioPrint Profile Panel
From the text: as §1

FP = target: T29, FP (Homo sapiens, UniProt P43088); details: Agonist, Receptor, read-out: % of specific inhibition
T29 construct: purchased Eurofins Discovery (Cerep) BioPrint Profile Panel
From the text: as §1

α2C = target: T30, α2C (Homo sapiens, UniProt P18825); details: Antagonist, Receptor, read-out: % of specific inhibition
T30 construct: purchased Eurofins Discovery (Cerep) BioPrint Profile Panel
From the text: as §1

α1B = target: T31, α1B (Homo sapiens, UniProt P35368); details: Antagonist, Receptor, read-out: % of specific inhibition
T31 construct: purchased Eurofins Discovery (Cerep) BioPrint Profile Panel
From the text: as §1

5-HT6 = target: T32, 5-HT6 (Homo sapiens, UniProt P50406); details: Agonist, Receptor, read-out: % of specific inhibition
T32 construct: purchased Eurofins Discovery (Cerep) BioPrint Profile Panel
From the text: as §1

AMPA = details: 10 μM; Agonist; Ion Channel
From the text: as §1

5-HT4e = target: T33, 5-HT4e (Homo sapiens, UniProt Q13639); details: Antagonist, Receptor, read-out: % of specific inhibition
T33 construct: purchased Eurofins Discovery (Cerep) BioPrint Profile Panel
From the text: as §1

AR = target: T34, AR (Homo sapiens, UniProt P10275, T878A); details: Agonist, Receptor, read-out: % of specific inhibition
T34 construct: purchased Eurofins Discovery (Cerep) BioPrint Profile Panel
From the text: as §1

NMDA = details: 10 μM; Antagonist; Ion Channel
From the text: as §1

GABA transporter = details: 10 μM, Antagonist
From the text: as §1

TNF-α = details: 10 μM; Agonist; Receptor
From the text: as §1

[2] = read-out: % Inhibition of Control Specific Binding

T22 sequence (P0DMS8 whole entry): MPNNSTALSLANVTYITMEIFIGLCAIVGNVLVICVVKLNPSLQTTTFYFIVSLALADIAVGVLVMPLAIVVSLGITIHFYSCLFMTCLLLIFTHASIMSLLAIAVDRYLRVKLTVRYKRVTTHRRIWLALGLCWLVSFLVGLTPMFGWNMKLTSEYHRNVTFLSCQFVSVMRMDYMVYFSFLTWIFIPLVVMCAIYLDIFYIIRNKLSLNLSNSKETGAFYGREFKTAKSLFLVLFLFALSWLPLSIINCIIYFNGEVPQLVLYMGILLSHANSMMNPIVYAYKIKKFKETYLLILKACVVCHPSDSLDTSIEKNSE
T28 sequence (P29274 whole entry): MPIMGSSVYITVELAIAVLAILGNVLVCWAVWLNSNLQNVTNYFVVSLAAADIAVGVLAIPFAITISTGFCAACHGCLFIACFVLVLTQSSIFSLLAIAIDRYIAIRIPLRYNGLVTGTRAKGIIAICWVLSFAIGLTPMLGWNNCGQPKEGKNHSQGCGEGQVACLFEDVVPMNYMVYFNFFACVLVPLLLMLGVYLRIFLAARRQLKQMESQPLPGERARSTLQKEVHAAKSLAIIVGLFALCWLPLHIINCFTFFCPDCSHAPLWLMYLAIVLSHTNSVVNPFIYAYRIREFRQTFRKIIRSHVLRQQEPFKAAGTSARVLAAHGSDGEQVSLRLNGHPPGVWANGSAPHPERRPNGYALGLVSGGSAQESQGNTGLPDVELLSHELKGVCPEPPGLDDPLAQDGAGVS
T1 sequence (P41595 whole entry): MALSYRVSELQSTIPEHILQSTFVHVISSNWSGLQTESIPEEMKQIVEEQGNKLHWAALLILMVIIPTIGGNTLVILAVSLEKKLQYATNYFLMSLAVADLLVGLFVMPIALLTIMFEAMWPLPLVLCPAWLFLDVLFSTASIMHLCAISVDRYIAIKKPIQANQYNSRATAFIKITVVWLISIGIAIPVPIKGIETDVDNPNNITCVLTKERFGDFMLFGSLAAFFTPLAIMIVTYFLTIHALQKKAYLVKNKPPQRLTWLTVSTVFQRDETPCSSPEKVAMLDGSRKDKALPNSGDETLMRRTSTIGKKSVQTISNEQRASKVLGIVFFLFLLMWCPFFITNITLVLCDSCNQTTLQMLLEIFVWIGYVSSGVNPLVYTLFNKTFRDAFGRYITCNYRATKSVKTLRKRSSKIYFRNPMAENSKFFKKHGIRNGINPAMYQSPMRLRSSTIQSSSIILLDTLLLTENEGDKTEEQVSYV
T24 sequence (P35367 whole entry): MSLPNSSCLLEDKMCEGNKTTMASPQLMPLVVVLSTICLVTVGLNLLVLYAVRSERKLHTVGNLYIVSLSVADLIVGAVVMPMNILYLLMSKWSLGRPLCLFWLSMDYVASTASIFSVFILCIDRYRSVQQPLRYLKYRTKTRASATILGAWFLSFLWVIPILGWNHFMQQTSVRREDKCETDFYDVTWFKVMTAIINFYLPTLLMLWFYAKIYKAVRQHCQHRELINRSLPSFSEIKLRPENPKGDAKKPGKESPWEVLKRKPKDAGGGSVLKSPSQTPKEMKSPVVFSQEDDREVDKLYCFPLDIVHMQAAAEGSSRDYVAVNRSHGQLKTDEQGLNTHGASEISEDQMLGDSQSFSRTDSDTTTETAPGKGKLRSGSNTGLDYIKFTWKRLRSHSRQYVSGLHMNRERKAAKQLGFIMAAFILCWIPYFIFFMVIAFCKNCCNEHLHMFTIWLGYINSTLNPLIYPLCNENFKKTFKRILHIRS
T11 sequence (P21728 whole entry): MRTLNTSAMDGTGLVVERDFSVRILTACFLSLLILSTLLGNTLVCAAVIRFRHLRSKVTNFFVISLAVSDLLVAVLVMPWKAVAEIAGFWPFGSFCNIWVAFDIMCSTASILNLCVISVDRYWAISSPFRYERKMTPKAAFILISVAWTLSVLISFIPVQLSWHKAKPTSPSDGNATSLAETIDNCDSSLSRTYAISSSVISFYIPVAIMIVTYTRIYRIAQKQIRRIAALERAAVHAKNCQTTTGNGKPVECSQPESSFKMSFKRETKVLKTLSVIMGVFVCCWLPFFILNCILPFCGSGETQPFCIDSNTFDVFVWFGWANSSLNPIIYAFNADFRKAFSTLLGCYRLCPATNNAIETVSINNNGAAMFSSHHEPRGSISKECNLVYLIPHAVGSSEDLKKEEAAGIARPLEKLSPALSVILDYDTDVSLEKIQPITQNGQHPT
T27 sequence (P14867 28-456): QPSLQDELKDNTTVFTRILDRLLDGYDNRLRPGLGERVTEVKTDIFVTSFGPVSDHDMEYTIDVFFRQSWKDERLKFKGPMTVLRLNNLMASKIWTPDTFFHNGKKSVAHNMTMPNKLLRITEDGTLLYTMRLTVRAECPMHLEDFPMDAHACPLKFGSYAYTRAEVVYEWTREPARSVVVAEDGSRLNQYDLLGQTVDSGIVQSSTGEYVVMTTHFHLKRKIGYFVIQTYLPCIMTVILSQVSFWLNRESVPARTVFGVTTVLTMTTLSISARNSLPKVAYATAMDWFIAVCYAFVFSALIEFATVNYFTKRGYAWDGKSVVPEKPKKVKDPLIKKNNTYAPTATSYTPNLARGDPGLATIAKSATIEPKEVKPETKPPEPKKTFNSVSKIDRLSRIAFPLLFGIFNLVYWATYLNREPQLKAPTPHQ
T27 sequence (P47870 25-512 limits assumed): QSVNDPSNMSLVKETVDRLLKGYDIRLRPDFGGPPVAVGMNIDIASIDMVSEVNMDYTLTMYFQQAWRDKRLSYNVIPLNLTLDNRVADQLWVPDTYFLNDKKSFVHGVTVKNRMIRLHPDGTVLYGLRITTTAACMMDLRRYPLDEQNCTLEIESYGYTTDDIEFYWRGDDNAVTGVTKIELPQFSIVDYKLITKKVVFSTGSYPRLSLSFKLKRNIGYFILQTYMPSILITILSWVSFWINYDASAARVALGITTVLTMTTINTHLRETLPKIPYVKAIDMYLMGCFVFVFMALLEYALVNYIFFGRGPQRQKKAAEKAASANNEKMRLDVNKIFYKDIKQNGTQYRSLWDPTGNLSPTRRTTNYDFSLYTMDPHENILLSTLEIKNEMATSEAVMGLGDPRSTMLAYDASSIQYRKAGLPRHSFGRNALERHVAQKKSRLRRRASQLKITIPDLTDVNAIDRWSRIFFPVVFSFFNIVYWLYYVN
T27 sequence (P18507 40-467 partner limits assumed): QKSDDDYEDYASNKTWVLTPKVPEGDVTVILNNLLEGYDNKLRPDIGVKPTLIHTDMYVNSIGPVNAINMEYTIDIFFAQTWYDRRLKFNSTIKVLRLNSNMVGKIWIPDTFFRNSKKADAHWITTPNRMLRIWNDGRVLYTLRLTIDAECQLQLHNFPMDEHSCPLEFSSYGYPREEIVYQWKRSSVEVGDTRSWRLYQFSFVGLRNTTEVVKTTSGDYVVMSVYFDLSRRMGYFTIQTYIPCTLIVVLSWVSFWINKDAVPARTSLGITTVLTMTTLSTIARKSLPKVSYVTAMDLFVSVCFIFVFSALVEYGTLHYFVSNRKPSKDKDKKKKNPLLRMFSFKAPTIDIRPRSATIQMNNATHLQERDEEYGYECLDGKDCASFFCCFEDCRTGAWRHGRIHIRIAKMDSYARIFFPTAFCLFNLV
T23 sequence (P47871 26-477): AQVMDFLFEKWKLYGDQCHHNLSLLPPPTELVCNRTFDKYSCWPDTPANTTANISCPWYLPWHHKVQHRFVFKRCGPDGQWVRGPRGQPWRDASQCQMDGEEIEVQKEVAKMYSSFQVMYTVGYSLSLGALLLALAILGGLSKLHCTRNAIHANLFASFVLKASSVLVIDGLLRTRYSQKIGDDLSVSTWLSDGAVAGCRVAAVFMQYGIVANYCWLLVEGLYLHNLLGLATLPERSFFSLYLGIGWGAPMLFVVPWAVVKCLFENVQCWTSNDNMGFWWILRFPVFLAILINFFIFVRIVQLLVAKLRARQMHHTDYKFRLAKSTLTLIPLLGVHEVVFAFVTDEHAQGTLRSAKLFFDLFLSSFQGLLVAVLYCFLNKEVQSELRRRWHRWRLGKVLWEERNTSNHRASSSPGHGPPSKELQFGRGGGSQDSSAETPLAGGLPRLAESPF
T9 sequence (P34972 whole entry): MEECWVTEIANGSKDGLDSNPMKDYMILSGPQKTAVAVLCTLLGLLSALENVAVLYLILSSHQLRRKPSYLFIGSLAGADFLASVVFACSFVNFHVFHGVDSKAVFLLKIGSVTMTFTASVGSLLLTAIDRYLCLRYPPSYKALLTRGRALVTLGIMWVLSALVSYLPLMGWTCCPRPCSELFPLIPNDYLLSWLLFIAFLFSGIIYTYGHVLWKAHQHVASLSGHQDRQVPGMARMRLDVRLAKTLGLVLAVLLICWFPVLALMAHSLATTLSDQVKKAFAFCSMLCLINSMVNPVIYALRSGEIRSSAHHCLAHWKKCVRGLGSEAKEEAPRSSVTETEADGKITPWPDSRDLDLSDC
T26 sequence (P41143 whole entry): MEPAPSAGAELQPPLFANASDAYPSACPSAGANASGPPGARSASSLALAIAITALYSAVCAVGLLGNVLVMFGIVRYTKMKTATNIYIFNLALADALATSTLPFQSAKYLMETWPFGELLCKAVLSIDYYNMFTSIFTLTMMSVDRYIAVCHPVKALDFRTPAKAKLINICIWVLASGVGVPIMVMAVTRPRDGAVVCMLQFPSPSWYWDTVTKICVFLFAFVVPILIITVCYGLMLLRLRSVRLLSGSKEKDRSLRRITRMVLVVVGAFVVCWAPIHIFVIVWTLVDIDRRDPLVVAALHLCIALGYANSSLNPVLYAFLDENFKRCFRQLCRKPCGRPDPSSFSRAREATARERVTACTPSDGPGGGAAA

How did the “% Inhibition of Control Specific Binding” value (5-HT2B; 10 μM) turn out when `O=c1cc(-c2ccccc2)oc2c(O)c(O)ccc12` [7,8-DHF, 7,8-dihydroxyflavone] was run?
The value was 50.2%.

What about the inhibition at 10 µM (5-HT2B; [2]) of the same compound?
Its inhibition at 10 µM is 50%.

And the inhibition at 10 µM (µ (MOP))?
The inhibition at 10 µM was -2%.

What about the inhibition at 10 µM (EP2) of the same compound?
The inhibition at 10 µM was 2%.

And the inhibition at 10 µM (5-HT transporter)?
The inhibition at 10 µM was -4%.

What about the inhibition at 10 µM (motilin) of the same compound?
The inhibition at 10 µM was -2%.

What about the inhibition at 10 µM (D3) of the same compound?
Its inhibition at 10 µM is 2%.

And the inhibition at 10 µM (NOP (ORL1))?
Its inhibition at 10 µM is 11%.

What about the inhibition at 10 µM (α1A) of the same compound?
The inhibition at 10 µM was 2%.

What about the inhibition at 10 µM (CB2) of the same compound?
The inhibition at 10 µM was -3%.

And the inhibition at 10 µM (IP (PGI2))?
The inhibition at 10 µM was 17%.

And the inhibition at 10 µM (D1)?
The inhibition at 10 µM was -4%.

And the inhibition at 10 µM (NK1)?
Its inhibition at 10 µM is 11%.

And the inhibition at 10 µM (M1)?
Its inhibition at 10 µM is -4%.

What about the inhibition at 10 µM (AT1) of the same compound?
The inhibition at 10 µM was 24%.

What about the inhibition at 10 µM (UT) of the same compound?
Its inhibition at 10 µM is -9%.

What about the inhibition at 10 µM (M2) of the same compound?
The inhibition at 10 µM was -2%.

And the inhibition at 10 µM (sst4)?
Its inhibition at 10 µM is -23%.

What about the inhibition at 10 µM (PAF) of the same compound?
Its inhibition at 10 µM is -20%.

And the inhibition at 10 µM (D2S)?
Its inhibition at 10 µM is -15%.

And the inhibition at 10 µM (CysLT1 (LTD4))?
The inhibition at 10 µM was -10%.

And the inhibition at 10 µM (5-HT7)?
The inhibition at 10 µM was 4%.

What about the “% of specific inhibition” value (Cl- channel) of the same compound?
Its value is -7%.

What about the “% of specific inhibition” value [1] of the same compound?
The value was -15%.

And the “% Inhibition of Control Specific Binding” value (A3; 10 μM)?
Its value is 68.2%.

What about the inhibition at 10 µM (A3; [2]) of the same compound?
The inhibition at 10 µM was 68%.

And the inhibition at 10 µM (glucagon)?
Its inhibition at 10 µM is 3%.

What about the inhibition at 10 µM (H1) of the same compound?
The inhibition at 10 µM was -5%.

What about the inhibition at 10 µM (V2) of the same compound?
Its inhibition at 10 µM is -2%.

And the “% of specific inhibition” value (glycine)?
Its value is -1%.

What about the “% of specific inhibition” value (N muscle-type) of the same compound?
Its value is -20%.

What about the inhibition at 10 µM (ẟ(DOP)) of the same compound?
Its inhibition at 10 µM is -5%.

What about the inhibition at 10 µM (GABAA1 (h) (α1, β2, γ2)) of the same compound?
The inhibition at 10 µM was 12%.

And the “% Inhibition of Control Specific Binding” value (MT3 (ML2))?
Its value is 86%.

What about the “% of specific inhibition” value (Ca2+ channel; first unspecified Ca2+ channel entry) of the same compound?
Its value is -4%.

What about the “% of specific inhibition” value (Ca2+ channel; second unspecified Ca2+ channel entry) of the same compound?
The value was -6%.

And the “% Inhibition of Control Specific Binding” value (A2A; 10 μM)?
The value was 74.9%.

And the inhibition at 10 µM (A2A; [2])?
Its inhibition at 10 µM is 75%.

What about the inhibition at 10 µM (FP) of the same compound?
Its inhibition at 10 µM is 6%.

And the inhibition at 10 µM (α2C)?
The inhibition at 10 µM was 1%.

And the inhibition at 10 µM (α1B)?
Its inhibition at 10 µM is -3%.

And the inhibition at 10 µM (5-HT6)?
Its inhibition at 10 µM is -3%.

What about the “% of specific inhibition” value (AMPA) of the same compound?
The value was 7%.

And the inhibition at 10 µM (5-HT4e)?
Its inhibition at 10 µM is -11%.

And the inhibition at 10 µM (AR)?
Its inhibition at 10 µM is 0%.

What about the “% of specific inhibition” value (NMDA) of the same compound?
Its value is 11%.

And the “% of specific inhibition” value (GABA transporter)?
The value was -2%.

And the “% of specific inhibition” value (TNF-α)?
The value was 2%.
